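In this assay, cells in 96-well plates receive the compound at five concentrations for 48 hours. Endpoints are linearly interpolated between the surrounding concentrations. Definition used: TGI = concentration required for complete inhibition of growth.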
How the values were obtained:
Assay in all cases: DTP human tumour cell line panel, 48 h
[1] = tested on: SR leukemia
[2] = tested on: OVCAR-5 ovarian
[3] = tested on: OVCAR-8 ovarian
[4] = tested on: EKVX NSCLC
[5] = tested on: HCT-15 colon
[6] = tested on: UACC-62 melanoma
[7] = tested on: SF-295 CNS
[8] = tested on: SW-620 colon
[9] = tested on: HCT-116 colon
[10] = tested on: NCI/ADR-RES ovarian
[11] = tested on: MDA-N

Compound	TGI [1] [µM]	TGI [2] [µM]	TGI [3] [µM]	TGI [4] [µM]	TGI [5] [µM]	TGI [6] [µM]	TGI [7] [µM]	TGI [8] [µM]	TGI [9] [µM]	TGI [10] [µM]	TGI [11] [µM]
N=C1C(=N)c2ccccc2-c2ccccc21.[Cl-].[Ru+2].c1ccc(-c2ccccn2)nc1.c1ccc(-c2ccccn2)nc1	> 100	> 100	> 100	> 100	> 100	> 100	> 100	> 100	> 100	–	–
CC(=O)Nc1ccc2c(C)c3c(nc2n1)[nH]c1ccccc13	64.9	> 100	87.6	98.1	64.5	60.9	78.8	> 100	58.4	62.1	44
Cc1ccc(C)c(NC(=O)C(=O)C(C(=O)c2ccc3ccccc3c2)C2OC(=O)c3ccccc32)c1 (stereo not drawn)	> 100	42.5	20.3	51.1	44.8	27.8	66.2	29.4	24.9	–	–
Cc1ccc(C(=N)c2ccccc2Cc2cccc3ccccc23)c2ccccc12	> 100	> 100	> 100	> 100	> 100	> 100	> 100	> 100	> 100	> 100	–
C#CCNC(CSSCC(N)C(=O)O)C(=O)O (stereo not drawn)	–	> 100	> 100	> 100	> 100	> 100	> 100	> 100	> 100	> 100	> 100
c1ncn(C23C4C5C6C4C2C6C53)n1 (stereo not drawn)	> 100	> 100	> 100	> 100	> 100	–	> 100	> 100	> 100	> 100	> 100
COC(=O)[C@H]1C=NN[C@@H]1C(=O)N1[C@H]2CC3CC[C@@]2(CS1(=O)=O)C3(C)C	> 100	> 100	> 100	> 100	> 100	–	> 100	> 100	> 100	> 100	–
S=C1c2ccc(Cl)cc2-n2cnnc2C2CSCN12 (stereo not drawn)	> 100	> 100	> 100	> 100	> 100	> 100	> 100	> 100	> 100	> 100	> 100
COC1CC(N)(c2ccccc2)C(O)C(C)O1 (stereo not drawn)	> 100	> 100	> 100	> 100	> 100	> 100	> 100	> 100	> 100	> 100	> 100
O=C(Nc1ccccc1)N(C1=NCC(CI)S1)c1ccc(F)c(F)c1 (stereo not drawn)	> 100	> 100	> 100	> 100	> 100	–	> 100	> 100	> 100	> 100	96.3
Cc1ccc2nc(SCC(=O)N=Nc3c(O)[nH]c4ccccc34)n(-c3ccccc3)c(=O)c2c1	36.7	29.3	–	29.2	40.5	30.6	29.5	61.4	28.4	26.1	37.6
COc1cccc(N2C(=O)CSC2c2cccc(Oc3ccccc3)c2)c1 (stereo not drawn)	17.6	> 100	50.7	61.4	76.9	11.7	> 100	> 100	12	40.4	5.53
CC12CCC(CC(=O)/C1=C(/Br)I)C2(C)C (stereo not drawn)	39	8.76	34.3	36.6	31.2	30.4	3.03	34.4	24.9	29.8	26.7
COC(=O)Cc1cc(O)c2c(c1O)C(=O)c1ccccc1C2=O	> 100	> 100	> 100	> 100	> 100	> 100	> 72.4	> 100	> 100	> 100	> 100
CC(N=NNc1ccc(-c2nc3ccccc3[nH]2)cc1)C(=O)O (stereo not drawn)	> 100	> 100	> 100	> 100	61.6	–	72.1	> 100	> 100	90.6	> 100
O=c1[nH]/c(=C/c2ccc(OCc3ccccc3)cn2)c(=O)[nH]/c1=C/c1ccccc1	14.4	> 100	> 80.9	> 100	> 46.4	> 100	> 100	> 100	> 100	0.229	–
N#Cc1c(-c2ccc(Cl)cc2)c2c(nn3c4ccc5ccccc5c4nnc23)[nH]c1=O	–	23.4	6.98	27.1	6.35	3.24	5.47	11.4	7.02	26	5.78
C=CCn1c(=O)c(C)cn(COCCO)c1=O	–	> 100	> 100	> 100	–	–	–	> 100	–	> 100	> 100
c1ccc(-c2csc3c4ccccc4c4ccccc4[n+]23)cc1	> 100	35.8	17.9	31.8	> 78.7	5.27	16	17.4	12.1	–	–
Fc1ccc(C(OCCN2CCN(CCCc3ccccc3)CC2)c2ccc(F)cc2)cc1	10	15.7	13	15.2	13.4	21.4	15.2	> 50.6	–	12.6	14.3
